Experimental data as given in paper PMC11554305, “Functional identification of soluble uric acid as an endogenous inhibitor of CD38” (eLife, 2024).

Assays:
recombinant hCD38 = target: T1, recombinant hCD38 (Homo sapiens, UniProt P28907); assay: Metabolic assay of NMN (degradation by recombinant hCD38); type: biochemical; details: NMN 200 μM, hCD38 20 ng/mL, 6 hr
T1 construct: the commercial recombinant hCD38 without a transmembrane region was partially used in this study; purchased Sino Biological 10818-H08H
T1 sequence (P28907 43-300 limits assumed): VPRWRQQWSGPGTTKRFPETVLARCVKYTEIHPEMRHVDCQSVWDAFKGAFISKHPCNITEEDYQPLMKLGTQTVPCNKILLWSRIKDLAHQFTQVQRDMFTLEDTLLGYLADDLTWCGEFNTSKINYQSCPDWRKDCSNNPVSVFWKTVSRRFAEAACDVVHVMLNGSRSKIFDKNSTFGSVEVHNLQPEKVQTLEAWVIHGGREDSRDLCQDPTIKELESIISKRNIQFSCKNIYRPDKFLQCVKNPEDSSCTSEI
Method: To prepare the reaction buffer, sUA was directly dissolved in blank RPMI-1640 medium by addition of NaOH, and the pH was immediately adjusted by HCl. After pH adjustment, the medium containing sUA was filtered by 0.2 μm filter and diluted as indicated. The medium containing 20 ng/mL recombinant hCD38 was then placed in a cell incubator. The reaction was started with the addition of NMN (final concentration was 200 μM). After incubation for 6 hr, 20 μL medium was transferred into 180 μL 5% ice-cold PCA, then vortexed for 30 s and centrifuged at 15,000 rpm, 4°C for 10 min. The supernatant was stored at –80°C until further handling for NMN measurement (see LC-MS/MS analysis).
As mentioned above, samples (cells, tissues, blood, or reaction buffer) were treated with ice-cold PCA, after extraction and centrifugation, the collected supernatant was appropriately diluted in 5% ice-cold PCA when applicable, and then was vortexed for 30 s and centrifuged at 15,000 rpm, 4°C for 5 min. […] All the samples after handling were immediately analyzed in this study without freezing and thawing.
The LC-MS/MS system consisted of a triple quadrupole LCMS-8050 (Shimadzu) and an LC-30A system (Shimadzu). […] NAD^+ and NMN were measured independently in this study, as their peaks were hardly separated within a short time.

[1] = test system: bone marrow-derived macrophages (BMDMs); assay: Extracellular NMN degradation in primed BMDMs; type: cell-based, mouse; details: WT BMDMs, not in CD38 KO BMDMs; NMN 100 μM, 6 hr
Method: (§1) Bone marrow cells were isolated from 10- to 12-week-old WT or CD38 KO mice (both male and female) by washing the marrow cavity with sterile PBS. The collected bone marrow cells were filtered by 70 μm strainers and then centrifuged at 1000 rpm, 4°C for 5 min. The cell pellet was resuspended in 2 mL red blood cell (RBC) lysis buffer for 30 s, then 8 mL complete RPMI-1640 medium (10% FBS, 1% penicillin/streptomycin, and 50 μM 2-mercaptoethanol) was added to terminate the lysis. After 5 min centrifugation at 1000 rpm, 4°C, the cells were resuspended in fresh complete RPMI-1640 medium and maintained for 4 hr in an incubator. Adherent cells were discarded, whereas non-adherent cells were cultured in complete RPMI-1640 medium containing 20 ng/mL M-CSF. After 3-day differentiation, the medium was replaced with fresh complete RPMI-1640 medium containing 20 ng/mL M-CSF. On the 7th day, BMDMs were collected for subsequent experiments. BMDMs were primed with 100 ng/mL ultrapure LPS for 4 hr for canonical inflammasome assay. For metabolic assay of NMN, BMDMs were primed with 100 ng/mL ultrapure LPS for 8 hr to induce higher protein expression of CD38.
WT and CD38 KO BMDMs were primed with 100 ng/mL ultrapure LPS for 8 hr, then the cells were washed twice with sterile PBS. Primed BMDMs were maintained in RPMI-1640 medium supplemented with 100 μM NMN in the presence or absence of sUA. […]

WT BMDMs = assay: Intracellular NAD+ in primed WT BMDMs treated with NMN; type: cell-based, mouse; details: sUA 100, 200 and 500 μM; NMN 100 μM, 6 hr
Method: as §1
WT BMDMs were primed with 100 ng/mL ultrapure LPS for 8 hr. Then, the cells were washed twice with sterile PBS. Afterward, the cells were incubated in control or 100 μM NMN-supplemented RPMI-1640 medium in the presence of sUA or 78c. […]

neutrophils = test system: neutrophils; set-up: method as in Ma et al., 2022; details: sUA 595 μM; ref Ma et al., 2022; cited from earlier work

NMN degradation by recombinant hCD38 (recombinant hCD38): directly inhibited NMN degradation
Structure (SMILES): O=c1[nH]c(=O)c2[nH]c(=O)[nH]c2[nH]1 [sUA, uric acid]
Extracellular NMN availability [1]: increased extracellular NMN availability
Intracellular NAD+ in primed WT BMDMs treated with NMN (WT BMDMs): failed to boost intracellular NAD^+
Neutrophil response to IL-8 (neutrophils): inhibits neutrophils in response to IL-8
